Laboratory results from patent US20070059785A1, “Biomarkers in cancer” (SMITHKLINE BEECHAM CORPORATION, priority 2003, published 2007).
“Also recorded” adds a separate entry of the source.

What was measured:
Erk1/2 [1] = assay: BT474 tumor xenograft, p-Erk1/2 and total Erk1/2 by Western blot; assay type: in vivo, C.B-17 SCID mice
Procedure: (§1) The tumor implant was removed after the final treatment dose. Activated receptor (p-Tyr/ErbB-2) was assessed by IP Western blot and total ErbB-2 steady state protein (ErbB-2), total Erk1/2 and activated Erk1/2 (p-Erk1/2) were assessed by Western blot loading equal amounts of protein from tumor biopsies.
(§2) Cell extracts were prepared by homogenization as described for HN5 xenografts.
(§3) BT474 tumor xenografts (subcutaneous) were established as described in Materials and Methods. […] Controls were treated with vehicle alone. […] Activated receptor (p-Tyr/ErbB-2) was assessed by IP Western blot and total ErbB-2 steady state protein (ErbB-2), total Erk1/2 and activated Erk1/2 (p-Erk1/2) were assessed by Western blot loading equal amounts of protein from tumor biopsies.

pAKT = assay: Confocal microscopy of AU-565 cells exposed to epigen; assay type: cell-based, human; details: epigen and GW572016, confocal microscopy, results not shown
From the text: In response to NDF (Neu Differentiating Factor or Heregulin), these cells divide and multiply. AU565 cells were stained with antibodies to show total ERK, or stained with antibodies to show phosphorylated ERK (p-Erk).

AKT [2] = assay: Western blot of p-AKT in HN5 cells; assay type: cell-based, human; details: HN5, 5 μM, 24 h serum-free
Procedure: (§4) The erbB2 overexpressing human breast adenocarcinoma cell line, BT474, was obtained from the American Type Culture Collection (Rockville, M, USA). […] The EGFR overexpressing LICR-LON-HN5 head and neck carcinoma cell line, HN5, was kindly provided by Helmout Modjtahedi at the Institute of Cancer Research, Surrey, U.K.
(§5) For IP Western blots, equivalent amounts of protein were precleared with Protein G Plus/Protein A agarose overnight at 4° C. Precleared lysates were then incubated overnight at 4° C. with specific antibodies. Immune complexes were precipitated with Protein G Plus/Protein A agarose beads, washed in RIPA buffer and then boiled in sample loading buffer. Steady state levels of total Erk1/2 and activated Erk1/2 (p-Erk) as well as total AKT protein and activated AKT (p-AKT) protein were assessed by Western blot. […] Proteins were transferred to Immobilon-P or nitrocellulose membranes. Efficiency and equal loading of proteins was evaluated by Ponceau S staining. Membranes were blocked for 1 hr in TBS (25 mM Tris-HCl, pH 7.4, 150 mM NaCl, 2.7 mM KCl) containing 4% (w/v) lowfat milk or 3% BSA (w/v). Membranes were then probed with specific antibodies recognizing target proteins. Proteins were visualized with the SUPERSIGNAL® West Femto Maximum sensitivity substrate kit (Pierce).

HN5 cells = details: Rusnak et al.; cited from earlier work
Erk1/2 [3] = assay: Western blot of activated Erk1/2 (p-Erk1/2) in S1 cells; assay type: cell-based, human; details: 72 h
From the text: Proteins were transferred to Immobilon-P or nitrocellulose membranes.
ErbB2 overexpression is associated with the activation of downstream pathways involved in the propagation of proliferative signals such as Erk1/2 MAP kinases (Janes et al., Oncogene, 9:3601(1994)). […].

erbB2 [4] = target: T1, erbB2 (Homo sapiens, UniProt P04626); assay: BT474 tumor xenograft, p-Tyr/ErbB-2 and total ErbB-2 by Western blot; assay type: in vivo, C.B-17 SCID mice; details: 100 mg/kg
T1 sequence (P04626 23-1255): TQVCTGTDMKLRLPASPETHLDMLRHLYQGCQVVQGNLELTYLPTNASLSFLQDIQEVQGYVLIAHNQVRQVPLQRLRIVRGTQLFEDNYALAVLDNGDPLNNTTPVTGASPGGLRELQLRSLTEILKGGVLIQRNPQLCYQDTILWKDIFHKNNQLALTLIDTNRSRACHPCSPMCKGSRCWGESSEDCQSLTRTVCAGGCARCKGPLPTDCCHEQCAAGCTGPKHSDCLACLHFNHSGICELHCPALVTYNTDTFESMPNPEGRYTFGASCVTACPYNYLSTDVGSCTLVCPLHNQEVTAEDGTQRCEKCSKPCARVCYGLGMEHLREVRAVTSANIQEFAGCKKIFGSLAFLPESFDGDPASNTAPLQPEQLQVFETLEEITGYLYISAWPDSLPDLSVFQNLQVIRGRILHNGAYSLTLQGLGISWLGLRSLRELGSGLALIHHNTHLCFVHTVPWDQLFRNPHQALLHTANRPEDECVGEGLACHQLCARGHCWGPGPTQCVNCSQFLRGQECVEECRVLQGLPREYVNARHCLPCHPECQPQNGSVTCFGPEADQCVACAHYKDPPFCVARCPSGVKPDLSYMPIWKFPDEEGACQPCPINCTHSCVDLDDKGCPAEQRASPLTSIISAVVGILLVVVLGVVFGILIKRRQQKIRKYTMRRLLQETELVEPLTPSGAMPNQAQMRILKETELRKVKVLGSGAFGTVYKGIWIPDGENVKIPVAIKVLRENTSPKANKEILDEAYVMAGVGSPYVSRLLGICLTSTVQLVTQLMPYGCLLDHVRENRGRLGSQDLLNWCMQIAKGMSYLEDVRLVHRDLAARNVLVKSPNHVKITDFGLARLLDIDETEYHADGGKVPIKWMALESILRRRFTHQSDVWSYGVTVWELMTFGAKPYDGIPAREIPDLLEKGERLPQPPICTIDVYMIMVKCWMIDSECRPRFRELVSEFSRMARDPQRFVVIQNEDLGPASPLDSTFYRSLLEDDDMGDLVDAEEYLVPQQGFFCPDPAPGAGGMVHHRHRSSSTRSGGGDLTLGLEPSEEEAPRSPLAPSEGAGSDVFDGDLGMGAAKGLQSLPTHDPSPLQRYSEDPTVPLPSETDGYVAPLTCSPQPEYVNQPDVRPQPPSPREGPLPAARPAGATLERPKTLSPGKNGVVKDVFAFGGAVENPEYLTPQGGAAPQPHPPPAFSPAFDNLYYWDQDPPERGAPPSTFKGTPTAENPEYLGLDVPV
Procedure: as §1, §2, §3

[5] = Plasma concentration in patients; assay type: in vivo, human; details: oral once a day
erbB2 [6] = target: T1, erbB2; assay: IP Western blot of activated erbB2 (p-Tyr/erbB2) in S1 cells; assay type: cell-based; parameters: endogenous in cells; details: 72 h
Procedure: FIG. 1. […] The erbB2 overexpressing human breast adenocarcinoma cell line, BT474, was obtained from the American Type Culture Collection (Rockville, M, USA). […] The EGFR overexpressing LICR-LON-HN5 head and neck carcinoma cell line, HN5, was kindly provided by Helmout Modjtahedi at the Institute of Cancer Research, Surrey, U.K.
Cell cultures were maintained in a humidified atmosphere of 5% CO2 at 37° C.
(§6) Protein concentrations were determined using a modification of the Bradford method (Bio-Rad Laboratory).
as §5, with “Proteins were visualized with the SUPERSIGNAL® West Femto Maximum sensitivity substrate kit (Pierce).” left out

AKT [7] = details: S1 cells; not reversed by EGF; data of PCT/US03/12739; cited from earlier work
erbB2 [8] = target: T1, erbB2; assay: Clinical tumor biopsies, total erbB2 by IHC
From the text: (§7) All subjects provided written informed consent.
“erbB2” refers to total erbB2 as measured by immunohistochemistry and reported in OD;

AKT [9] = assay: Western blot of p-AKT in BT474 cells; assay type: cell-based, human; details: BT474, 1 μM, 24 h serum-free; not reversed by EGF
Procedure: as §4, §5
BT474 is an erbB2 overexpressing breast carcinoma line that also expresses EGFR, albeit at lower levels. […]

erbB2 [10] = target: T1, erbB2; assay: IP Western/Western blot of p-Tyr/erbB2 and total erbB2 in Hb4a cells; assay type: cell-based; parameters: endogenous in cells; host or cells: Hb4a; details: 5 μM, 72 h, not reversed by EGF
Procedure: The EGFR overexpressing LICR-LON-HN5 head and neck carcinoma cell line, HN5, was kindly provided by Helmout Modjtahedi at the Institute of Cancer Research, Surrey, U.K.
as §6
as §5, with “Proteins were visualized with the SUPERSIGNAL® West Femto Maximum sensitivity substrate kit (Pierce).” left out
Steady state levels of activated erbB2 and EGFR (p-Tyr/ErbB2 and p-Tyr/EGFR); total erbB2 and EGFR; activated Erk1/2 (p-Erk1/2) and total Erk1/2 were assessed by either IP Western or Western blot.

S1 cells = assay: Cell cycle analysis (propidium iodide, flow cytometry), apoptosis of S1 cells; details: 5 μM, 72 h
Procedure: The percentage of cells in G1, S phase, and G2/M are indicated. The sub-G1 peak represents the apoptotic fraction.
Cells were harvested and fixed with 70% ethanol in PBS. Cell pellets were then resuspended in 0.5 ml PBS containing propidium iodide (50 μg/ml) and DNase-free RNase (100 μg/ml). Cell cycle analysis was performed using a BD Flow Cytometer (Becton Dickinson, San Jose, Calif., USA).
After 72 h, cell cycle analysis was performed using propidium iodide staining and flow cytometry as described in Materials and methods.

cyclin D1 = assay: Clinical tumor biopsies, cyclin D1 by quantitative IHC
From the text: as §7
“Cyclin D1” refers to total cyclin D1 present as measured by immunohistochemistry and reported by OD;

p-Erk1/2 = assay: Clinical tumor biopsies, p-ERK index by quantitative IHC; details: patient 364, head and neck cancer, 1600 mg/day, Day 21
Procedure: DAB (Dako) was used as the chromogen.
To quantify changes in Erk1/2 activation state, a p-Erk index was established for each biopsy. The p-Erk index was the product of the percentage of cells staining positive for p-Erk1/2 in the tissue section and the OD value for p-Erk1/2 immunoreactivity. Investigators preparing and analyzing tissue sections were blinded to both patient tumor type and response to therapy.
“pERK index” is calculated by multiplying the percentage of cells staining positive for p-Erk and the optical density (OD) score, ×100;

CS(=O)(=O)CCNCc1ccc(-c2ccc3ncnc(Nc4ccc(OCc5cccc(F)c5)c(Cl)c4)c3c2)o1 [GW572016, N-{3-Chloro-4-[(3-fluorobenzyl)oxy]phenyl}-6-[5-({[2-(methylsulfonyl)ethyl]amino}methyl)-2-furyl]-4-quinazolinamine]
total Erk1/2 steady state protein levels (Erk1/2 [1]; 100 mg/kg): without effects | p-Erk1/2 (Erk1/2 [1]; 100 mg/kg oral twice daily, five doses): inhibited; also recorded: decreased | p-erk in the nuclei vs cells treated with epigen alone (pAKT): comparatively less | p-AKT (AKT [2]): inhibited p-AKT in HN5 cells, the effect was smaller than in erbB2-overexpressing tumor cells | apoptosis (HN5 cells): increased only slightly | total steady state Erk protein (Erk1/2 [3]; 0.5-5 μM): remained unchanged | inhibition at 0.5 µM (Erk1/2 [3]; Homo sapiens, 500 nM, vs vehicle, read-out: inhibition of activated, phosphorylated Erk1/2 (p-Erk)): > 50% | inhibition at 2.5 µM (Erk1/2 [3]; Homo sapiens, 2.5 μM, vs vehicle, read-out: inhibition of activated, phosphorylated Erk1/2 (p-Erk)): > 50% | inhibition at 5 µM (Erk1/2 [3]; Homo sapiens, 5 μM, vs vehicle, read-out: inhibition of activated, phosphorylated Erk1/2 (p-Erk)): 100% | total erbB2 steady state protein levels (erbB2 [4]): without effects | time by which steady state plasma concentrations were achieved [5]: ≤ 21 days | inhibition of erbB2 tyrosine phosphorylation (p-Tyr/erbB2) (erbB2 [6]; 500 nM): Partial inhibition | inhibition of erbB2 tyrosine phosphorylation (p-Tyr/erbB2) (erbB2 [6]; 2.5 μM): complete inhibition | baseline phosphorylation of AKT (AKT [7]): inhibits | total erbB2 protein (erbB2 [8]; patient 361, 1200 mg/day): no effect | ErbB2 (erbB2 [8]; patient 425, inflammatory breast cancer, 1200 mg/d ditosylate salt, day 21 (day 0: 62)): 68 OD | p-AKT (AKT [9]): completely inhibited | baseline amount of p-Tyr/erbB2 (erbB2 [10]): reduced; also recorded: decreased | increase in percentage of apoptotic cells vs vehicle (S1 cells): 23 fold | percentage of cells in S phase and G2/M (S1 cells): concomitant reduction | percentage of apoptotic cells (sub-G1 peak) (S1 cells; vehicle control 2%): 46% | reduction of cyclin D1 protein expression (cyclin D1; patient 361, 1200 mg/day, d 21): 90% | cyclin D1 OD (cyclin D1; patient 361, breast, 1200 mg/d, day 21 (day 0: 31)): 3 OD | cyclin D1 OD (cyclin D1; patient 362, adenocarcinoma unknown primary, 900 mg/d, day 21 (day 0: 26)): 37 OD | cyclin D1 OD (cyclin D1; patient 363, sarcoma, 500 mg/d, day 21 (day 0: 1)): 12 OD | reduction of cyclin D1 expression (cyclin D1; patient 364, 1600 mg/day, 21 days of therapy): 50% | cyclin D1 OD (cyclin D1; patient 364, head & neck, 1600 mg/d, day 21 (day 0: 66)): 33 OD | cyclin D1 OD (cyclin D1; patient 367, adenocarcinoma unknown primary, 650 mg/d, day 21 (day 0: 46)): 39 OD | cyclin D1 OD (cyclin D1; patient 369, head & neck, 1200 mg/d, day 21 (day 0: 39)): 22 OD | cyclin D1 OD (cyclin D1; patient 371, breast, 900 mg/d, day 21 (day 0: 42)): 10 OD | cyclin D1 OD (cyclin D1; patient 372, breast, 1200 mg/d, day 21 (day 0: 20)): 4 OD | Cyclin D1 (cyclin D1; patient 425, inflammatory breast cancer, 1200 mg/d ditosylate salt, day 21 (day 0: 19)): 12 OD | decrease in p-Erk1/2 (p-Erk1/2): > 90%
